Article PMC3794980, “Identification of Conserved and HLA Promiscuous DENV3 T-Cell Epitopes” (PLoS Neglected Tropical Diseases, 2013)

Experiments:
Test in all cases: biochemical
Type in all cases: binding
DRB3*0101 = DRB3*0101 (Homo sapiens, UniProt P01903+P79483)
DRB5*0101 = DRB5*0101 (Homo sapiens, UniProt P01903+Q30154)
DRB4*0101 = DRB4*0101 (Homo sapiens, UniProt P01903+P13762, G164S)

CC[C@H](C)[C@H](N)C(=O)NCC(=O)N[C@@H](CCCCN)C(=O)N[C@@H](CCSC)C(=O)N[C@@H](Cc1ccccc1)C(=O)N[C@@H](CCC(=O)O)C(=O)N[C@@H](C)C(=O)N[C@H](C(=O)N[C@@H](C)C(=O)N[C@@H](CCCNC(=N)N)C(=O)NCC(=O)N[C@@H](C)C(=O)N[C@@H](CCCNC(=N)N)C(=O)N[C@@H](CCCNC(=N)N)C(=O)N[C@@H](CCSC)C(=O)O)[C@@H](C)O [Envelope 396-410]
IC50 (DRB3*0101): 424 nM
IC50 (DRB5*0101): 27 nM
IC50 (DRB4*0101): 3610 nM

CC(C)C[C@H](NC(=O)[C@H](CCCNC(=N)N)NC(=O)[C@H](CCCCN)NC(=O)[C@@H]1CCCN1C(=O)[C@H](CO)NC(=O)[C@H](CC(=O)O)NC(=O)[C@H](C)NC(=O)[C@H](CCC(N)=O)NC(=O)[C@H](Cc1ccccc1)NC(=O)[C@H](CCCCN)NC(=O)[C@H](Cc1ccc(O)cc1)NC(=O)[C@H](CCC(N)=O)NC(=O)[C@H](CCC(=O)O)NC(=O)[C@@H](N)[C@@H](C)O)C(=O)N[C@@H](C)C(=O)O [NS1 29-43]
IC50 (DRB3*0101): 11 nM
IC50 (DRB5*0101): 23 nM
IC50 (DRB4*0101): 14400 nM

CC[C@H](C)[C@H](NC(=O)[C@H](CCC(N)=O)NC(=O)[C@@H](N)CCCCN)C(=O)N[C@@H](C)C(=O)N[C@@H](CC(N)=O)C(=O)N[C@@H](CCC(=O)O)C(=O)N[C@@H](CC(C)C)C(=O)N[C@@H](CC(N)=O)C(=O)N[C@@H](Cc1ccc(O)cc1)C(=O)N[C@H](C(=O)N[C@@H](CC(C)C)C(=O)N[C@@H](Cc1c[nH]c2ccccc12)C(=O)N[C@@H](CCC(=O)O)C(=O)N[C@@H](CC(N)=O)C(=O)N[C@@H](CC(N)=O)C(=O)O)[C@@H](C)CC [NS1 69-83]
IC50 (DRB3*0101): 50 nM
IC50 (DRB5*0101): 2380 nM
IC50 (DRB4*0101): 608 nM

CC[C@H](C)[C@H](N)C(=O)N[C@H](C(=O)NCC(=O)N[C@H](C(=O)N[C@@H](CC(C)C)C(=O)N[C@@H](CCC(=O)O)C(=O)N[C@@H](CCC(N)=O)C(=O)NCC(=O)N[C@@H](CCCCN)C(=O)N[C@@H](CCCNC(=N)N)C(=O)N[C@H](C(=O)N[C@@H](CC(C)C)C(=O)N[C@H](C(=O)N1CCC[C@H]1C(=O)N[C@@H](CCC(N)=O)C(=O)O)[C@@H](C)O)[C@@H](C)O)C(C)C)[C@@H](C)CC [NS1 93-107]
IC50 (DRB3*0101): 4350 nM
IC50 (DRB5*0101): 3070 nM
IC50 (DRB4*0101): 3700 nM

CC[C@H](C)[C@H](NC(=O)[C@H](CCSC)NC(=O)[C@H](CC(=O)O)NC(=O)[C@H](CO)NC(=O)[C@H](CCC(=O)O)NC(=O)[C@H](CC(C)C)NC(=O)[C@@H](NC(=O)CNC(=O)[C@H](CC(N)=O)NC(=O)[C@@H](N)CO)C(C)C)C(=O)N[C@H](C(=O)N1CCC[C@H]1C(=O)N[C@@H](CCCCN)C(=O)N[C@@H](CO)C(=O)N[C@@H](CC(C)C)C(=O)O)[C@@H](C)CC [NS1 233-247]
IC50 (DRB3*0101): 159 nM
IC50 (DRB5*0101): 4070 nM
IC50 (DRB4*0101): 3870 nM

CC(C)C[C@H](NC(=O)[C@H](CCCCN)NC(=O)CNC(=O)[C@H](CC(C)C)NC(=O)[C@@H](N)Cc1c[nH]cn1)C(=O)N[C@@H](CCC(=O)O)C(=O)N[C@@H](CC(C)C)C(=O)N[C@@H](CC(=O)O)C(=O)N[C@@H](Cc1ccccc1)C(=O)N[C@@H](CC(N)=O)C(=O)N[C@@H](Cc1ccc(O)cc1)C(=O)N[C@@H](CS)C(=O)N[C@@H](CCC(=O)O)C(=O)NCC(=O)N[C@H](C(=O)O)[C@@H](C)O [NS1 269-283]
IC50 (DRB3*0101): 71 nM
IC50 (DRB5*0101): 9470 nM
IC50 (DRB4*0101): 85 nM

CC(C)C[C@H](NC(=O)[C@H](CCCCN)NC(=O)CNC(=O)[C@H](CO)NC(=O)[C@@H](NC(=O)[C@@H](NC(=O)[C@@H](NC(=O)[C@@H](NC(=O)[C@H](CCCNC(=N)N)NC(=O)[C@H](CC(C)C)NC(=O)[C@H](CO)NC(=O)[C@@H]1CCCN1C(=O)CNC(=O)[C@H](CCCNC(=N)N)NC(=O)[C@@H](N)[C@@H](C)O)[C@@H](C)O)[C@@H](C)O)[C@@H](C)O)C(C)C)C(=O)O [NS1 293-307]
IC50 (DRB3*0101): 2280 nM
IC50 (DRB5*0101): 2610 nM
IC50 (DRB4*0101): 793 nM

CC[C@H](C)[C@H](NC(=O)[C@H](CC(C)C)NC(=O)[C@H](CCCCN)NC(=O)CNC(=O)[C@H](CO)NC(=O)[C@@H](NC(=O)[C@@H](NC(=O)[C@@H](NC(=O)[C@@H](NC(=O)[C@H](CCCNC(=N)N)NC(=O)[C@H](CC(C)C)NC(=O)[C@@H](N)CO)[C@@H](C)O)[C@@H](C)O)[C@@H](C)O)C(C)C)C(=O)N[C@@H](Cc1c[nH]cn1)C(=O)N[C@@H](CCC(=O)O)C(=O)N[C@@H](Cc1c[nH]c2ccccc12)C(=O)O [NS1 297-311]
IC50 (DRB3*0101): 12400 nM
IC50 (DRB5*0101): 2110 nM
IC50 (DRB4*0101): 5310 nM

CC(C)C[C@H](NC(=O)[C@H](CCCNC(=N)N)NC(=O)[C@H](CCCCN)NC(=O)CNC(=O)[C@@H](N)CC(N)=O)C(=O)N[C@@H](CCC(=O)O)C(=O)N1CCC[C@H]1C(=O)N[C@@H](CC(N)=O)C(=O)N[C@@H](Cc1c[nH]c2ccccc12)C(=O)N[C@@H](C)C(=O)N[C@@H](CO)C(=O)N[C@H](C(=O)N[C@@H](CCCCN)C(=O)N[C@@H](CCCCN)C(=O)N[C@@H](CC(=O)O)C(=O)O)C(C)C [NS3 61-75]
IC50 (DRB3*0101): 1200 nM
IC50 (DRB5*0101): 143 nM
IC50 (DRB4*0101): 7030 nM

CC[C@H](C)[C@H](NC(=O)[C@H](C)NC(=O)CNC(=O)[C@@H](NC(=O)[C@H](CCC(=O)O)NC(=O)CNC(=O)[C@@H](NC(=O)[C@@H](NC(=O)[C@@H](NC(=O)[C@H](CCC(N)=O)NC(=O)[C@H](Cc1ccccc1)NC(=O)[C@@H](NC(=O)CNC(=O)[C@@H]1CCCN1)[C@@H](C)O)[C@@H](C)O)[C@@H](C)O)[C@@H](C)O)[C@@H](C)CC)C(=O)N[C@@H](C)C(=O)O [NS3 113-127]
IC50 (DRB3*0101): 3070 nM
IC50 (DRB5*0101): 2100 nM
IC50 (DRB4*0101): 1840 nM

CC[C@H](C)[C@H](NC(=O)[C@H](C)NC(=O)CNC(=O)[C@@H](NC(=O)[C@H](CCC(=O)O)NC(=O)CN)[C@@H](C)CC)C(=O)N[C@@H](C)C(=O)N[C@@H](CC(C)C)C(=O)N[C@@H](CC(=O)O)C(=O)N[C@@H](Cc1ccccc1)C(=O)N[C@@H](CCCCN)C(=O)N1CCC[C@H]1C(=O)NCC(=O)N[C@H](C(=O)N[C@@H](CO)C(=O)O)[C@@H](C)O [NS3 121-135]
IC50 (DRB3*0101): 2210 nM
IC50 (DRB5*0101): 11900 nM
IC50 (DRB4*0101): 40 nM

CC[C@H](C)[C@H](NC(=O)[C@H](Cc1ccc(O)cc1)NC(=O)CNC(=O)[C@H](CCCNC(=N)N)NC(=O)[C@H](C)N)C(=O)N[C@@H](CO)C(=O)N[C@H](C(=O)N[C@@H](CCCNC(=N)N)C(=O)N[C@H](C(=O)NCC(=O)N[C@@H](CCSC)C(=O)NCC(=O)N[C@@H](CCC(=O)O)C(=O)N[C@@H](C)C(=O)N[C@@H](C)C(=O)O)C(C)C)[C@@H](C)O [NS3 297-311]
IC50 (DRB3*0101): 8650 nM
IC50 (DRB5*0101): 3450 nM
IC50 (DRB4*0101): 7230 nM

CC[C@H](C)[C@H](NC(=O)[C@@H](NC(=O)[C@H](CCCCN)NC(=O)[C@H](CCCCN)NC(=O)CNC(=O)[C@H](CC(N)=O)NC(=O)[C@H](CCCCN)NC(=O)[C@H](CCCNC(=N)N)NC(=O)[C@H](CC(C)C)NC(=O)[C@H](CS)NC(=O)[C@H](CC(N)=O)NC(=O)[C@H](C)N)C(C)C)C(=O)N[C@@H](CCC(N)=O)C(=O)N[C@@H](CC(C)C)C(=O)N[C@@H](CO)C(=O)O [NS3 373-387]
IC50 (DRB3*0101): 3430 nM
IC50 (DRB5*0101): 3540 nM
IC50 (DRB4*0101): 1630 nM

CC(C)C[C@H](NC(=O)[C@H](CCCCN)NC(=O)[C@@H](NC(=O)[C@H](CCCCN)NC(=O)[C@H](CCC(N)=O)NC(=O)[C@H](Cc1ccc(O)cc1)NC(=O)[C@H](CCC(=O)O)NC(=O)[C@@H](NC(=O)[C@H](CC(=O)O)NC(=O)[C@H](Cc1ccccc1)NC(=O)[C@@H](NC(=O)[C@@H](N)CCCCN)[C@@H](C)O)[C@@H](C)O)[C@@H](C)O)C(=O)N[C@@H](CC(N)=O)C(=O)N[C@@H](CC(=O)O)C(=O)N[C@@H](Cc1c[nH]c2ccccc12)C(=O)O [NS3 389-403]
IC50 (DRB3*0101): 4530 nM
IC50 (DRB5*0101): 2330 nM
IC50 (DRB4*0101): 9910 nM
